Experimental data: ChEMBL document CHEMBL4428076 (J Med Chem, 2016)
Calls of active or inactive are those of the source. The rule behind the calls is not given here.

What was measured:
[1] = molecular target: T1, Delta-type opioid receptor (Mus musculus, UniProt P32300); test: Antagonist activity at mouse delta opioid receptor-1 expressed in CHO cell membranes assessed as inhibition of DPDPE-induced [35S]GTPgammaS binding incubated for 60 mins by scintillation spectroscopic analysis; assay type: functional
T1 sequence (P32300 whole entry): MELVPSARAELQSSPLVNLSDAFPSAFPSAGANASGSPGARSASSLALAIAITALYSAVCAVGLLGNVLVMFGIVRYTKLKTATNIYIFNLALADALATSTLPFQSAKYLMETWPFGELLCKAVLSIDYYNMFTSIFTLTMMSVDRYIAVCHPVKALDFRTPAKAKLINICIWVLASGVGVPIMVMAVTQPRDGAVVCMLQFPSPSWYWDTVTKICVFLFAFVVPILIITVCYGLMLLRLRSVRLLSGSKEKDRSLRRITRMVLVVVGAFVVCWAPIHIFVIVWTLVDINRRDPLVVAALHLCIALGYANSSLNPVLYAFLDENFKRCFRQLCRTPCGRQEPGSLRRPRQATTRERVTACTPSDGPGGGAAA

[2] = molecular target: T1, Delta-type opioid receptor; test: Displacement of [125I]-IBNtxA from mouse delta opioid receptor-1 expressed in CHO cell membranes incubated for 90 mins
[3] = molecular target: Mu-type opioid receptor (Mus musculus) (UniProt P42866); test: Agonist activity at mouse mu opioid receptor-1 expressed in CHO cell membranes assessed as [35S]GTPgammaS binding incubated for 60 mins by scintillation spectroscopic analysis relative to DAMGO; assay type: functional
Chain of Mu-type opioid receptor (Mus musculus) (P42866 whole entry, canonical isoform): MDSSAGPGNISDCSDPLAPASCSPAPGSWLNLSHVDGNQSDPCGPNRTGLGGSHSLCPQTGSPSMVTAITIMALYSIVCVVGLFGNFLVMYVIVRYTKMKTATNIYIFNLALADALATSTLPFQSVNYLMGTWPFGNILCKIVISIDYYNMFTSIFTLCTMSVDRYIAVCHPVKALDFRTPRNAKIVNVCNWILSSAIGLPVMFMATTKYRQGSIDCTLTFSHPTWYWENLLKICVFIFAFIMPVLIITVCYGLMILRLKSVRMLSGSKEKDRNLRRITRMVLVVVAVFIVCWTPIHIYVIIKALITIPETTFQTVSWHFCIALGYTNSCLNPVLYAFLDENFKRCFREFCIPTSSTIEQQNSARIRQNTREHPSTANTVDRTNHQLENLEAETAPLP

Mus musculus [4] = test: Antinociceptive activity in MOR-1 6TM/E11 splice variant knock out sc dosed C57BL/6 mouse assessed as increase in reaction time by radiant heat tail flick assay; assay type: functional; details: C57BL/6, sc
[5] = molecular target: 5-hydroxytryptamine receptor 7 (Homo sapiens) (UniProt P34969); test: Displacement of [3H]LSD from recombinant human 5HT7A receptor expressed in HEK cell membrane after 90 mins by microbeta scintillation counting method
Chain of 5-hydroxytryptamine receptor 7 (Homo sapiens) (P34969 whole entry): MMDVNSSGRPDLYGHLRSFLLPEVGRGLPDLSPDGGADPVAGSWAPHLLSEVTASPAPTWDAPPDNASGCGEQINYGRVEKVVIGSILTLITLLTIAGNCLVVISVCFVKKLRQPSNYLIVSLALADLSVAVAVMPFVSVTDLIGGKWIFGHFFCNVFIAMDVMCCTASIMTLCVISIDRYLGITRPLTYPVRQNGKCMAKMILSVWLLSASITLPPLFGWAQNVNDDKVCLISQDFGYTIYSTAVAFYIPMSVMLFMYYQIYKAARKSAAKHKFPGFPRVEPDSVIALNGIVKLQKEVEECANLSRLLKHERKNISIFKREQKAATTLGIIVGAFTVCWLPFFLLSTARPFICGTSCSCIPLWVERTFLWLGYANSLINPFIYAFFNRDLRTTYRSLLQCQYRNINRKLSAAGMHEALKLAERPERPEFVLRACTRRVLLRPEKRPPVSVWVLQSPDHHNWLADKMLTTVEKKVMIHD

Mu-type opioid receptor [6] = molecular target: T2, Mu-type opioid receptor (Homo sapiens, UniProt P35372); test: Activation of mu opioid receptor-1 (unknown origin) expressed in CHO cells assessed as beta-arrestin-2 recruitment at 10 uM after 90 mins by beta-galactosidase complementation assay; assay type: cell-based; details: 1.5 h
T2 sequence (P35372 whole entry): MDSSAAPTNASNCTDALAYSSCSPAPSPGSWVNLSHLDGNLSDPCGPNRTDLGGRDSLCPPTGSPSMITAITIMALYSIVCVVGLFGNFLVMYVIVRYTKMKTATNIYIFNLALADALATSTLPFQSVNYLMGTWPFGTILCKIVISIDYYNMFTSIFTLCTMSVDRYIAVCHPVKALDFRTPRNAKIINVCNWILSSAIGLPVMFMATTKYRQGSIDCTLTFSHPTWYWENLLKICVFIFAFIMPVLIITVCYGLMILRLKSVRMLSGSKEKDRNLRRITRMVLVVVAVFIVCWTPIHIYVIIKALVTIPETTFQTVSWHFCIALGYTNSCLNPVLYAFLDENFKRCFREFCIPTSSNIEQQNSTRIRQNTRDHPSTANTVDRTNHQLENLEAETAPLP

Mu-type opioid receptor [7] = molecular target: T2, Mu-type opioid receptor; test: Inhibition of DAMGO-induced beta-arrestin-2 recruitment at mu opioid receptor-1 (unknown origin) expressed in CHO cells preincubated for 30 mins followed by DAMGO addition measured after 90 mins by beta-galactosidase complementation assay; assay type: cell-based
Mus musculus [8] = test: Antinociceptive activity in icv dosed CD-1 mouse assessed as increase in reaction time measured 15 mins post dose by radiant heat tail flick assay; assay type: functional
Mus musculus [9] = test: Potency index, ratio of morphine ED50 to compound ED50 in icv dosed CD-1 mouse; assay type: functional
Mus musculus [10] = test: Antinociceptive activity in C57BL/6 mouse assessed as increase in reaction time at 0.1 to 10 mg/kg, sc measured 15 mins post dose by radiant heat tail flick assay; assay type: functional, organism-based
Mus musculus [11] = test: Antinociceptive activity in CD-1 mouse assessed as increase in reaction time at 1.5 mg/kg, sc measured 15 mins post dose in presence of mu opioid receptor antagonist beta-FNA by radiant heat tail flick assay; assay type: functional, organism-based
Mus musculus [12] = test: Antinociceptive activity in CD-1 mouse assessed as increase in reaction time at 1.5 mg/kg, sc measured 15 mins post dose in presence of opioid antagonist naloxone by radiant heat tail flick assay; assay type: functional, organism-based
Mus musculus [13] = test: Antinociceptive activity in CD-1 mouse assessed as increase in reaction time at 1.5 mg/kg, sc measured 15 mins post dose in presence of delta opioid receptor antagonist NTI by radiant heat tail flick assay; assay type: functional, organism-based
Mus musculus [14] = test: Antinociceptive activity in CD-1 mouse assessed as increase in reaction time at 1.5 mg/kg, sc measured 15 mins post dose in presence of kappa opioid receptor antagonist norBNI by radiant heat tail flick assay; assay type: functional, organism-based
Mus musculus [15] = test: Antinociceptive activity in CD-1 mouse assessed as increase in reaction time at 1.5 mg/kg, sc measured 15 mins post dose in presence of adrenergic alpha2 receptor antagonist yohimbine by radiant heat tail flick assay; assay type: functional, organism-based
Mus musculus [16] = test: Antinociceptive activity in CD-1 mouse assessed as increase in reaction time at 1.5 mg/kg, sc administered on day 6 after DOR1-exon3 antisense oligodeoxynucleotide injection on day 1, 3 and 5 by radiant heat tail flick assay; assay type: functional, organism-based
Mus musculus [17] = test: Antinociceptive activity in CD-1 mouse assessed as increase in reaction time at 1.5 mg/kg, sc administered on day 6 after KOR1-exon2 antisense oligodeoxynucleotide injection on day 1, 3 and 5 by radiant heat tail flick assay; assay type: functional, organism-based
Mus musculus [18] = test: Antinociceptive activity in MOR-1 7TM/E1 splice variant knock out sc dosed C57BL/6 mouse assessed as increase in reaction time by radiant heat tail flick assay; assay type: functional; details: C57BL/6, sc
Mus musculus [19] = test: Antinociceptive activity in sc dosed C57BL/6 mouse assessed as increase in reaction time by radiant heat tail flick assay; assay type: functional; details: C57BL/6, sc
Mus musculus [20] = test: Antinociceptive activity in sc dosed CD-1 mouse assessed as increase in reaction time administered twice daily at dosing intervals of 12 hrs for 29 days by radiant heat tail flick assay; assay type: functional; details: CD-1, sc
Mus musculus [21] = test: Ratio of ED50 for sc dosed CD-1 mouse administered twice daily at dosing intervals of 12 hrs for 5 days to ED50 for sc dosed CD-1 mouse measured 15 mins post dose; assay type: functional
Mus musculus [22] = test: Ratio of ED50 for sc dosed CD-1 mouse administered twice daily at dosing intervals of 12 hrs for 29 days to ED50 for sc dosed CD-1 mouse measured 15 mins post dose; assay type: functional
Mus musculus [23] = test: Antinociceptive activity in sc dosed CD-1 mouse assessed as increase in AUC of reaction time administered twice daily at dosing intervals of 12 hrs for 29 days by radiant heat tail flick assay relative to morphine; assay type: functional
[24] = Toxicity in CD-1 mouse assessed as physical dependence by measuring number of jumps at 1.5 mg/kg, sc bid for 5 days followed by opioid antagonist naloxone injection on day 5 measured for 15 mins post last dose; assay type: organism-based; details: in vivo, 0.25 h
[25] = Toxicity in CD-1 mouse assessed as physical dependence by measuring number of jumps at 1.5 mg/kg, sc bid for 22 days followed by opioid antagonist naloxone injection on day 22 measured for 15 mins post last dose; assay type: organism-based; details: in vivo, 0.25 h
[26] = Toxicity in CD-1 mouse assessed as physical dependence by measuring number of jumps at 1.5 mg/kg, sc bid for 29 days followed by opioid antagonist naloxone injection on day 29 measured for 15 mins post last dose; assay type: organism-based; details: in vivo, 0.25 h
[27] = Toxicity in CD-1 mouse assessed as inhibition of gastrointestinal transit by measuring distance traveled by charcoal at 1.5 mg/kg, sc followed by charcoal meal administration measured after 30 mins; assay type: organism-based; details: in vivo, 0.5 h
[28] = Toxicity in CD-1 mouse assessed as inhibition of gastrointestinal transit by measuring distance traveled by charcoal at 4 mg/kg, sc followed by charcoal meal administration measured after 30 mins; assay type: organism-based; details: in vivo, 0.5 h
[29] = Toxicity in C57BL/6 mouse assessed as conditioned place preference at 1.3 to 3.2 mg/kg/day, ip measured for 30 mins post dose; assay type: organism-based; details: in vivo, 0.5 h

Question: With CC[C@@H]1CN2CC[C@]3(Nc4cccc(OC)c4C3=O)[C@@H]2C[C@@H]1/C(=C\OC)C(=O)OC as the compound, how does the IC50 [1] read?
Answer: 61 nM

Question: And the Ki [2]?
Answer: 3 nM

Question: And the Emax [3]?
Answer: 84%

Question: And the ED50 (Mus musculus [4])?
Answer: 1.4 mg/kg

Question: And the inhibition [5]?
Answer: Active

Question: And the Activity (Mu-type opioid receptor [6])?
Answer: Not Active

Question: What about the IC50 (Mu-type opioid receptor [7]) of the same compound?
Answer: 34 nM

Question: And the inhibition (Mu-type opioid receptor [7])?
Answer: Dose-dependent effect

Question: What about the ED50 (Mus musculus [8]) of the same compound?
Answer: 0.38 µg

Question: And the “Ratio ED50” value (Mus musculus [9])?
Answer: 1.5

Question: What about the Activity (Mus musculus [10]) of the same compound?
Answer: Active

Question: What about the Activity (Mus musculus [11]) of the same compound?
Answer: inactive

Question: And the Activity (Mus musculus [12])?
Answer: inactive

Question: What about the Activity (Mus musculus [13]) of the same compound?
Answer: Active

Question: And the Activity (Mus musculus [14])?
Answer: Active

Question: What about the Activity (Mus musculus [15]) of the same compound?
Answer: Active

Question: What about the Activity (Mus musculus [16]) of the same compound?
Answer: Active

Question: And the Activity (Mus musculus [17])?
Answer: Active

Question: What about the ED50 (Mus musculus [18]) of the same compound?
Answer: > 30 mg/kg

Question: What about the ED50 (Mus musculus [19]) of the same compound?
Answer: 0.83 mg/kg

Question: What about the ED50 (Mus musculus [20]) of the same compound?
Answer: 4.5 mg/kg

Question: And the “Ratio ED50” value (Mus musculus [21])?
Answer: <2

Question: And the “Ratio ED50” value (Mus musculus [22])?
Answer: 6

Question: What about the “fold change (FC)” value (Mus musculus [23]) of the same compound?
Answer: 6

Question: What about the Activity [24] of the same compound?
Answer: 12

Question: And the Activity [25]?
Answer: 13

Question: What about the Activity [26] of the same compound?
Answer: 14

Question: And the Activity [27]?
Answer: Toxic

Question: What about the Activity [28] of the same compound?
Answer: Non-Toxic

Question: What about the Activity [29] of the same compound?
Answer: Non-Toxic
